According to ChEMBL document CHEMBL5365531, “Structure-Activity Relationship Studies of SARS-CoV-2 Main Protease Inhibitors Containing 4-Fluorobenzothiazole-2-carbonyl Moieties” (J Med Chem, 2023):

Tests used:
[1] = Cytotoxicity against African green monkey Vero E6 cells incubated for 3 days by WST-8 assay; type: toxicity, cell-based, Vero C1008; details: chlorocebus sabaeus, time 3 day
SARS-CoV-2 [2] = experiment: (§1) Antiviral activity against SARS-CoV-2 JPN/TY/WK-521 infected in Vero E6 cells assessed as fold change preincubated with cells for 1 day followed by viral infection and measured after 3 days by qRT-PCR analysis relative to TKB245; type: functional, Severe acute respiratory syndrome coronavirus 2; details: time 4 day
SARS-CoV-2 [3] = experiment: Antiviral activity against SARS-CoV-2 JPN/TY/WK-521 infected in Vero E6 cells preincubated with cells for 1 day followed by viral infection and measured after 3 days by qRT-PCR analysis; type: functional, organism-based; details: Severe acute respiratory syndrome coronavirus 2, JPN/TY/WK-521, Vero C1008
SARS-CoV-2 [4] = experiment: as §1, with “7-fluoro-N-((S)-1-(((S)-1-(4-fluorobenzo[d]thiazol-2-yl)-1-oxo-3-((S)-2-oxopyrrolidin-3-yl)propan-2-yl)amino)-3,3-dimethyl-1-oxobutan-2-yl)-4-methoxy-1H-indole-2-carboxamide” for “TKB245”; type: functional, Severe acute respiratory syndrome coronavirus 2; details: time 4 day
SARS-CoV-2 [5] = experiment: Antiviral activity against SARS-CoV-2 infected in Vero E6 cells assessed as fold change preincubated with cells for 1 day followed by viral infection and measured after 3 days by qRT-PCR analysis relative to YH-53; type: functional, Severe acute respiratory syndrome coronavirus 2; details: time 4 day
SARS-CoV-2 [6] = experiment: Antiviral activity against SARS-CoV-2 infected in Vero E6 cells preincubated with cells for 1 day followed by viral infection and measured after 3 days by qRT-PCR analysis; type: functional, organism-based; details: Severe acute respiratory syndrome coronavirus 2, Vero C1008
MOLT-4 = experiment: Cytotoxicity against human MOLT-4 cells assessed as reduction in cell viability at 3 uM incubated for 12 days by CCK-8 assay; type: toxicity, cell-based; details: molt-4, 288 h, time 12 day
PBMC = experiment: Cytotoxicity against human PBMC cells assessed as reduction in cell viability at 3 uM incubated for 12 days by CCK-8 assay; type: toxicity, cell-based; details: 288 h, time 12 day
MT2 = experiment: Cytotoxicity against human MT2 cells assessed as reduction in cell viability at 3 uM incubated for 12 days by CCK-8 assay; type: toxicity, cell-based; details: mt2, 288 h, time 12 day

CC(C)(C)[C@H](NC(=O)C(F)(F)F)C(=O)N1C[C@H]2[C@@H]([C@H]1C(=O)N[C@@H](C[C@@H]1CCNC1=O)C(=O)c1nc3c(Cl)cccc3s1)C2(C)C
CC50 at 72 h [1]: > 100000 nM
fold change (FC) (SARS-CoV-2 [2]): 0.86
EC50 (SARS-CoV-2 [3]): 19 nM

CC(C)(C)[C@H](NC(=O)C(F)(F)F)C(=O)N1C[C@H]2[C@@H]([C@H]1C(=O)N[C@@H](C[C@@H]1CCNC1=O)C(=O)c1nc3c(Br)cccc3s1)C2(C)C
CC50 at 72 h [1]: > 100000 nM
fold change (FC) (SARS-CoV-2 [2]): 2.9
EC50 (SARS-CoV-2 [3]): 63 nM

COc1cccc2[nH]c(C(=O)N3C[C@H]4[C@@H]([C@H]3C(=O)N[C@@H](C[C@@H]3CCNC3=O)C(=O)c3nc5ccccc5s3)C4(C)C)cc12
CC50 at 72 h [1]: > 100000 nM
fold change (FC) (SARS-CoV-2 [4]): 11
EC50 (SARS-CoV-2 [3]): 2500 nM

COc1ccc(F)c2[nH]c(C(=O)N3C[C@H]4[C@@H]([C@H]3C(=O)N[C@@H](C[C@@H]3CCNC3=O)C(=O)c3nc5c(F)cccc5s3)C4(C)C)cc12
CC50 at 72 h [1]: > 100000 nM
fold change (FC) (SARS-CoV-2 [4]): 2.7
EC50 (SARS-CoV-2 [3]): 560 nM

COc1ccc(F)c2[nH]c(C(=O)N[C@H](C(=S)N[C@@H](C[C@@H]3CCNC3=O)C(=O)c3nc4c(F)cccc4s3)C(C)(C)C)cc12
CC50 at 72 h [1]: > 100000 nM
fold change (FC) (SARS-CoV-2 [5]): 0.16
EC50 (SARS-CoV-2 [6]): 340 nM

CC(C)(C)[C@H](NC(=O)C(F)(F)F)C(=O)N1C[C@H]2[C@@H]([C@H]1C(=O)N[C@@H](C[C@@H]1CCNC1=O)C(=O)c1nc3ccccc3s1)C2(C)C
CC50 at 72 h [1]: > 100000 nM
fold change (FC) (SARS-CoV-2 [4]): 0.071
EC50 (SARS-CoV-2 [3]): 15 nM

CC(C)(C)[C@H](NC(=O)C(F)(F)F)C(=O)NC1(C(=O)N[C@@H](C[C@@H]2CCNC2=O)C(=O)c2nc3c(F)cccc3s2)CCC(F)(F)C1 (some centres not stated)
CC50 at 72 h [1]: > 100000 nM
fold change (FC) (SARS-CoV-2 [2]): 90
EC50 (SARS-CoV-2 [3]): 2400 nM

COc1cccc2[nH]c(C(=O)N[C@H](C(=O)N[C@@H](C[C@@H]3CCNC3=O)C(=O)c3nc4ccccc4s3)C(C)(C)C)cc12
CC50 at 72 h [1]: > 100000 nM
EC50 (SARS-CoV-2 [6]): 2200 nM

CC(C)(F)[C@H](NC(=O)C(F)(F)F)C(=O)N1C[C@H]2[C@@H]([C@H]1C(=O)N[C@@H](C[C@@H]1CCNC1=O)C(=O)c1nc3c(F)cccc3s1)C2(C)C
CC50 at 72 h [1]: > 100000 nM
fold change (FC) (SARS-CoV-2 [2]): 21
EC50 (SARS-CoV-2 [3]): 250 nM

COc1ccc(F)c2[nH]c(C(=O)N[C@H](C(=O)N[C@@H](C[C@@H]3CCNC3=O)C(=O)c3nc4c(F)cccc4s3)C(C)(C)C)cc12
CC50 at 72 h [1]: > 100000 nM
fold change (FC) (SARS-CoV-2 [5]): 0.13
EC50 (SARS-CoV-2 [6]): 290 nM

CC1(C)[C@@H]2[C@@H](C(=O)N[C@@H](C[C@@H]3CCNC3=O)C(=O)c3nc4c(F)cccc4s3)N(C(=O)c3cc4c(F)ccc(F)c4[nH]3)C[C@@H]21
CC50 at 72 h [1]: > 100000 nM
fold change (FC) (SARS-CoV-2 [4]): 3.1
EC50 (SARS-CoV-2 [3]): 750 nM

CC(C)C(=O)OC[C@H]1O[C@@H](n2ccc(NO)nc2=O)[C@H](O)[C@@H]1O [MOLNUPIRAVIR]
Activity (MOLT-4): Non-Toxic
Activity (PBMC): Non-Toxic
Activity (MT2): Toxic

CC1(C)[C@@H]2[C@@H](C(=O)N[C@@H](C[C@@H]3CCNC3=O)C(=O)c3nc4c(F)cccc4s3)N(C(=O)[C@H](CCC(F)(F)F)NC(=O)C(F)(F)F)C[C@@H]21
CC50 at 72 h [1]: > 100000 nM
fold change (FC) (SARS-CoV-2 [2]): 14
EC50 (SARS-CoV-2 [3]): 590 nM

CC1(C)[C@@H]2[C@@H](C(=O)N[C@@H](C[C@@H]3CCNC3=O)C(=O)c3nc4c(F)cccc4s3)N(C(=O)[C@H](CC(F)(F)F)NC(=O)C(F)(F)F)C[C@@H]21
CC50 at 72 h [1]: > 100000 nM
fold change (FC) (SARS-CoV-2 [2]): 34
EC50 (SARS-CoV-2 [3]): 2800 nM

CC(C)C[C@H](NC(=O)[C@@H](NC(=O)C(F)(F)F)C(C)(C)C)C(=O)N[C@@H](C[C@@H]1CCNC1=O)C(=O)c1nc2c(F)cccc2s1
CC50 at 72 h [1]: > 100000 nM
fold change (FC) (SARS-CoV-2 [4]): 1
EC50 (SARS-CoV-2 [3]): 360 nM

CC(C)(C)[C@H](NC(=O)C(F)(F)F)C(=O)N1C[C@@H]2CCC[C@@H]2[C@H]1C(=O)N[C@@H](C[C@@H]1CCNC1=O)C(=O)c1nc2c(F)cccc2s1
CC50 at 72 h [1]: > 100000 nM
fold change (FC) (SARS-CoV-2 [2]): 1.6
EC50 (SARS-CoV-2 [3]): 95 nM
